Starred links: 1 amine or outer side, 2 acyl side, 3 side chain; linkers in the order of their positions; H or OH if unused. Positions of bridges follow the written chain, without caps; N, C: chain ends. Non-standard residues stand in square brackets, D forms with d. Residues, ends and D or L forms follow the SMILES beside them. Chains are numbered I, II in the order given. Actinocin(9to1) = Cc1c2oc3c(C)ccc(C(=O)[*:1])c3nc-2c(C(=O)[*:2])c(N)c1=O; NMeV = CN[C@H](C(=O)O)C(C)C; Sar = CNCC(=O)O
Legend:
[1] = test system: cancer cell lines originating from other tissues; test: 6-day cell survival assay, cancer cell lines originating from other tissues (summary); type: cell-based; conditions: lung, liver, breast, pancreas lines
Description: Cell survival assays (FIGS. 12-19) were performed in 96-well plates in technical duplicates. Treatments started 24 hours post cell plating and lasted for 6-days prior to cell viability assessment with the Cell Titer Glo 2.0 Luminescent assay (Promega, G9242).

mouse ESCs [2] = test: Competitive growth assay of wild-type and knockout sister ESC clones in presence of artemisinin; type: cell-based; conditions: mixed labelled cells, artemisinin exposure, flow cytometry
Description: Haploid ESCs harbouring gene traps in nomic introns were seeded at low density in normal ESC growth medium and infected for 12 h with two viruses, one encoding mCherry plus Cre recombinase and the other coding for GFP, both together with puromycin (Invivogen, ant-pr-1). Infected cells were selected (final concentration of puromycin, 1 µg/ml) after 24 h and expanded. Ratios of GFP- to mCherry/Cre-expressing cells in the presence and absence of artemisinin were determined using high-throughput flow cytometry (BD LSRFortessa HTS Cell Analyzer).

[3] = test system: neuroblastoma cells (SHSY5Y), Jurkat and HL-60 cells; test: ROS levels by Dihydroethidium (DHE) staining and flow cytometry in cell lines; type: cell-based; conditions: artemisinin alone; Jurkat and HL-60 cells, 48 h
Description: Treated cells were collected, washed with 1x HBSS (without Ca2+ and Mg2+), incubated with 1mM DHE (Dihydroethidium (Hydroethidine), Invitrogen, D11347) in 1x HBSS for 45 min at 37° C., washed twice and counterstained with DAPI or a viability dye (eBioscience™ Fixable Viability Dye eFluor™ 780, 65-0865-18) for 10 min on ice. Cells were then collected, strained and analysed using flow cytometry for DHE in the red fluorescent spectrum (PE channel).

[4] = test system: human cerebral tumor organoids (CNS-PNET); test: Compound profiling in CNS-PNET cerebral tumor organoids (GFP-positive tumor cells); type: cell-based; conditions: very high concentrations, compound alone
Description: Tumor initiation was induced by either oncogene amplification, using a Sleeping Beauty (SB) transposase, or mutation of tumor suppressor genes, using the CRISPR-Cas9 system in day 10 old embryoid bodies (EBs). Plasmids carrying the transposase as well as GFP and the desired oncogenes or expressing Cas9 nuclease were introduced by electroporation. In brief, a mixture of 1 μg DNA and 100 μl nucleofector solution was added to 10 EBs and transferred to a nucleofection cuvette. The Lonza Nucleofector 2b and the A-023 program were used for electroporation/ nucleofection. Thereafter, EBs were transferred into 10 cm dishes containing differentiation media containing vitamin A and embedded into Matrigel 24 hours later. Two different types of tumors were initiated {Bian:2018gs}: Central nervous system primitive neuroectodermal tumors (CNS-PNET) were induced by the overexpression of Myc. Glioblastoma-like tumor group 2 (GBM-2) was caused by mutagenesis of the tumor suppressor genes p53, NF1 and PTEN. All plasmids were designed by Shan Bian {Bian, S. et al. Genetically engineered cerebral organoids model brain tumor formation. Nat. Methods 15, 631-639 (2018)}. Cerebral tumor organoids were treated with different compounds and the survival and growth of transformed as well as untransformed neurons was monitored. Fluorescence labeling of tumor cells allowed clear distinguishability of transformed cells as compared to non-labeled throughout the experiment using brightfield microscopy, as well as fluorescence imaging. The transformed tumor tissue and untransformed neurons within the same organoid was monitored using fluorescence imaging, as well as brightfield microscopy throughout the experiment. At the endpoint of the treatment (d5 or d7 respectively), the number of GFP-positive cells was assessed by flow cytometry. Cerebral (tumor) organoids were enzymatically and mechanically dissociated using 1x trypsin, 35-45 min incubation at 37° C., and gentle shaking. […] Single cells in suspension were counterstained with DAPI or a viability dye (eBioscienceTM Fixable Viability Dye eFluorTM 780, 65-0865-18), and analysed using flow cytometry (BD LSRFortessa HTS Cell Analyzer). The amounts of GFP-positive cells were analyzed. […] Brightfield and green fluorescence images were taken from the same area. Additionally, for image analyses, the Celldiscoverer 7 (Zeiss), a fully integrated high-end automated live cell imaging system, was used. Cerebral organoids were fixed in 4% PFA (room temperature, 1 h), incubated with 30% sucrose (4° C., o/n), OCT (Tissue-tek OCT Compound, […], 4583) embedded and 20 μm sections were cryostat cut (-12/-14° C.). […] Fluorescence Mounting Medium (Dako, S302380) was used for mounting the sample slides. […]

[5] = test system: human glioblastoma-like neoplastic organoid model; test: Compound profiling in human glioblastoma-like neoplastic organoid model (p53, NF1, PTEN mutated); type: cell-based; conditions: compound alone
Description: Tumor initiation was induced by either oncogene amplification, using a Sleeping Beauty (SB) transposase, or mutation of tumor suppressor genes, using the CRISPR-Cas9 system in day 10 old embryoid bodies (EBs). Plasmids carrying the transposase as well as GFP and the desired oncogenes or expressing Cas9 nuclease were introduced by electroporation. In brief, a mixture of 1 μg DNA and 100 μl nucleofector solution was added to 10 EBs and transferred to a nucleofection cuvette. The Lonza Nucleofector 2b and the A-023 program were used for electroporation/ nucleofection. […] Cerebral tumor organoids were treated with different compounds and the survival and growth of transformed as well as untransformed neurons was monitored. Fluorescence labeling of tumor cells allowed clear distinguishability of transformed cells as compared to non-labeled throughout the experiment using brightfield microscopy, as well as fluorescence imaging. The transformed tumor tissue and untransformed neurons within the same organoid was monitored using fluorescence imaging, as well as brightfield microscopy throughout the experiment. At the endpoint of the treatment (d5 or d7 respectively), the number of GFP-positive cells was assessed by flow cytometry. […] Brightfield and green fluorescence images were taken from the same area. […]

[6] = test system: colorectal cancer (CRC) cells; conditions: reported in literature; cited from earlier work
mouse ESCs [7] = test: Cell survival of artemisinin treated mouse embryonic stem cells (Alamar Blue, 48 h); type: cell-based; conditions: artemisinin combined with acifluorfen or 5-ALA (0.5 mM)
Description: For dosage responses, cells were seeded in 96-wells (25.000/ 96-well, in triplicate -where indicated) and subjected to compounds for 48 h. Cell viability was assessed using automated cell counting (high-throughput flow cytometry), Alamar Blue staining (Invitrogen, DAL1100) or CellTiter-Glo Luminescent Assay (Promega, G7570, according to the manufacturer’s protocol) respectively.

Molecule | effect of the chemotherapeutic agent when combined with the double combination ART/DHA/ARS with 5-ALA [1] | also measured
COc1cccc2c1C(=O)c1c(O)c3c(c(O)c1C2=O)C[C@@](O)(C(=O)CO)C[C@@H]3O[C@H]1C[C@H](N)[C@@H](O)[C@H](C)O1 [epirubicin] | enhances | 
O=c1[nH]cc(F)c(=O)[nH]1 [5-fluorouracil] | enhances | 
COc1cccc2c1C(=O)c1c(O)c3c(c(O)c1C2=O)C[C@@](O)(C(=O)CO)C[C@@H]3O[C@H]1C[C@H](N)[C@H](O)[C@H](C)O1 [doxorubicin] | enhances | 
Cc1c2oc3c(C)ccc(C(=O)N[C@@H]4C(=O)N[C@H](C(C)C)C(=O)N5CCC[C@H]5C(=O)N(C)CC(=O)N(C)[C@@H](C(C)C)C(=O)O[C@@H]4C)c3nc-2c(C(=O)N[C@@H]2C(=O)N[C@H](C(C)C)C(=O)N3CCC[C@H]3C(=O)N(C)CC(=O)N(C)[C@@H](C(C)C)C(=O)O[C@@H]2C)c(N)c1=O [dactinomycin] (I: T[dV]P[Sar][NMeV] / II: T[dV]P[Sar][NMeV]; ester I:1-I:C, II:1-II:C; linker I:N-II:N via Actinocin(9to1)) | enhances | 
C[C@@H]1CC[C@H]2[C@@H](C)C(=O)O[C@@H]3O[C@@]4(C)CC[C@@H]1[C@]32OO4 [artemisinin] |  | relative growth of wild-type (mCherry_Cre) and knockout (GFP) sister cell clones (mouse ESCs [2]): selective loss of wild-type (mCherry_Cre) and strong expansion of knockout cells (GFP); ROS levels (DHE) [3]: increased levels of ROS; growth of GFP-positive tumor organoids [4]: notable growth inhibition; survival of untransformed and transformed cells [5]: little effect on the survival of untransformed cells as well as transformed cells; cytotoxicity [6]: specific cytotoxicity
CC(C)[C@]12O[C@H]1[C@@H]1O[C@]13[C@]1(O[C@H]1C[C@H]1C4=C(CC[C@@]13C)C(=O)OC4)[C@@H]2O [triptolide] | enhances | 
COC(=O)C[C@](O)(CCCC(C)(C)O)C(=O)O[C@@H]1C(OC)=C[C@]23CCCN2CCc2cc4c(cc2[C@H]13)OCO4 [homoharringtonin] | enhances | 
O=C(O)c1cc(Oc2ccc(C(F)(F)F)cc2Cl)ccc1[N+](=O)[O-] [acifluorfen] |  | susceptibility to artemisinin (cell survival) (mouse ESCs [7]): increased resistance to artemisinin
N.N.[Cl][Pt][Cl] [cisplatin] | enhances | 
O=NN(CCCl)C(=O)NC1CCCCC1 [lomustine] | enhances | 
N.N.O=C([O-])C1(C(=O)[O-])CCC1.[Pt+2] [carboplatin] | enhances | 
vinorebine | enhances | 

Source: patent publication US20230121771A1, “A PHARMACEUTICAL COMBINATION OF AN ARTEMISININ COMPOUND, 5-AMINOLEVULINIC ACID OR METHYL-5-AMINOLEVULINIC ACID AND A CHEMOTHERAPEUTIC AGENT” (JLP Health GmbH, priority 2020, published 2023)
